Experiments:
[1] = biological target: T1, Solute carrier organic anion transporter family member 1A2 (Homo sapiens, UniProt P46721); assay: (§1) TP_TRANSPORTER: uptake in Xenopus laevis oocytes; format: functional, cell-based, Oocyte; conditions: oocyte
T1 sequence (P46721 whole entry): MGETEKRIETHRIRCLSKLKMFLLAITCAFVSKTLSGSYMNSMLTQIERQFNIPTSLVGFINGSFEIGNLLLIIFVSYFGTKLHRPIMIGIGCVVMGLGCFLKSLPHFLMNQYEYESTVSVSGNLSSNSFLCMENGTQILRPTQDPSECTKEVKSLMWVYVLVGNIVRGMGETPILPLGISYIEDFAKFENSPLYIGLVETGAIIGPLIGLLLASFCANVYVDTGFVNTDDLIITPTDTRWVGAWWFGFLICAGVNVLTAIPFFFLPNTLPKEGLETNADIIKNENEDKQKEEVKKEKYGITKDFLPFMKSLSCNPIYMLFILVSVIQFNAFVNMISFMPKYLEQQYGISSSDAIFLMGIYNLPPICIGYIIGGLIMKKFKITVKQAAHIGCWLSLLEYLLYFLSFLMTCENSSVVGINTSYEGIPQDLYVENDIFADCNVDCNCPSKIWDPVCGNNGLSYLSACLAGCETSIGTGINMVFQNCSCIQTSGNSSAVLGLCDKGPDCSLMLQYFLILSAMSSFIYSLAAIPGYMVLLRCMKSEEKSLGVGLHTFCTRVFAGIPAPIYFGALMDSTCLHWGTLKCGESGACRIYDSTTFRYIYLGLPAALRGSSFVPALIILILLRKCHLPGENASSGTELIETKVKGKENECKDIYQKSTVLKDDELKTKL

[2] = biological target: T2, Solute carrier organic anion transporter family member 1A1 (Rattus norvegicus, UniProt P46720); assay: as §1; format: functional, cell-based; conditions: oocyte
T2 sequence (P46720 whole entry): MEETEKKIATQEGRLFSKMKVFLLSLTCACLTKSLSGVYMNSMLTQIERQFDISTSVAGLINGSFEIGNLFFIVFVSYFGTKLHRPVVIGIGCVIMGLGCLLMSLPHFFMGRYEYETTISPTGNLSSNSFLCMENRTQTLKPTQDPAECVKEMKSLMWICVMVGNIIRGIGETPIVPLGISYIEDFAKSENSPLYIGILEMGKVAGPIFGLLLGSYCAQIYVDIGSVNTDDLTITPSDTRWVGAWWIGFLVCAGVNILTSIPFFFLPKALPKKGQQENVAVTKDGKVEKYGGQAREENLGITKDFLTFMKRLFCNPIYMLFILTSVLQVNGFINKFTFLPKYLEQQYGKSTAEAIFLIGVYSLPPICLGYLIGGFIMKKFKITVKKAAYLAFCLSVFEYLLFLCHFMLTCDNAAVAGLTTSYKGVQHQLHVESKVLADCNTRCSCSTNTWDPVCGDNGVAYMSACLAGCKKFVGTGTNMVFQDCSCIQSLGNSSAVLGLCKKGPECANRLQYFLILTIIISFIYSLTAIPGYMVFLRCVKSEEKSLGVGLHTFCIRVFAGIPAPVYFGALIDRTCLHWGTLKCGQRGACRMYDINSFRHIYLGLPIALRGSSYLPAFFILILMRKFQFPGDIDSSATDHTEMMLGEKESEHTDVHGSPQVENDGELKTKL

[3] = biological target: T3, Solute carrier organic anion transporter family member 1A4 (Rattus norvegicus, UniProt O35913); assay: as §1; format: functional, cell-based; conditions: oocyte
T3 sequence (O35913 whole entry): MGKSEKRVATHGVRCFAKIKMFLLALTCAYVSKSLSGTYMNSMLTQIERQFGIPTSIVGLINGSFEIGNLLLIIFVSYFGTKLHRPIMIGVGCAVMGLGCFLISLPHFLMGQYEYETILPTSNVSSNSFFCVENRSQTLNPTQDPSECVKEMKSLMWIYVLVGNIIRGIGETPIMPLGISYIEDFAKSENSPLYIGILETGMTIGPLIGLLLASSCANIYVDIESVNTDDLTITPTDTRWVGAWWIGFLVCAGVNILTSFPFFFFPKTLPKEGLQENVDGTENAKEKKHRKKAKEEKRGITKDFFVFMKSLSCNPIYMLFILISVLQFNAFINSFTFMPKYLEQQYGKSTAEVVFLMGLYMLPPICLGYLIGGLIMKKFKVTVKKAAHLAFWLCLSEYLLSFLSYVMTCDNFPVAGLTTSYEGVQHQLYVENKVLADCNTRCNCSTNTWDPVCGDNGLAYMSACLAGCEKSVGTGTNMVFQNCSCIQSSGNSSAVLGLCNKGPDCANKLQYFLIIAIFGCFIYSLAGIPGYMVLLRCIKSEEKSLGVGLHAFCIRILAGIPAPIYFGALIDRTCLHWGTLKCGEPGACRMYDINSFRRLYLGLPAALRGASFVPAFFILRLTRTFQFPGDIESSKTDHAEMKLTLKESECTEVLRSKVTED

[4] = biological target: T4, Solute carrier organic anion transporter family member 1A2 (OATP1A2) (Homo sapiens, UniProt P46721); assay: as §1; format: functional, cell-based, Oocyte; conditions: Xenopus laevis oocytes expressing the transporter
T4 sequence (P46721 whole entry): T1 sequence (P46721 whole entry)

Compound | Activity [1] | Activity [2] | Activity [3] | Km [4] [µM]
CCC1C[N+]2(CCCC3(C)N=N3)C3CC45c6ccccc6N(C)C4C2CC1C3C5O (configuration not stated) | substrate [+] | substrate [+] | substrate [+] | 
C=C[C@H]1C[N+]2(C)CC[C@H]1C[C@H]2[C@H](O)c1ccnc2ccc(OC)cc12 |  | substrate [+] | is not a substrate [-] | 5.1
C=C[C@H]1C[N+]2(C)CC[C@H]1C[C@@H]2[C@@H](O)c1ccnc2ccc(OC)cc12 |  | is not a substrate [-] | is not a substrate [-] | 25.6
C=CC[N+]1([C@H]2C[C@H]3[C@@H]4CC[C@H]5C[C@H](O)[C@@H](N6CCOCC6)C[C@]5(C)[C@H]4CC[C@]3(C)[C@H]2OC(C)=O)CCCC1 [ROCURONIUM] | substrate [+] | substrate [+] | substrate [+] | 

Source: ChEMBL document CHEMBL2074320, “Polyspecific organic anion transporting polypeptides mediate hepatic uptake of amphipathic type II organic cations” (J Pharmacol Exp Ther, 1999)
